Where a name gives a salt, the structure may show the parent alone.

The IC50 is the point on the concentration scale where inhibition reaches its midpoint.

The assay deals with T1, Recombinant human KIF18A (1-467 His-tagged) (Homo sapiens, UniProt Q8NI77).
T1 construct: Recombinant human KIF18A (1-467 His-tagged) protein; His
T1 sequence (Q8NI77 1-467): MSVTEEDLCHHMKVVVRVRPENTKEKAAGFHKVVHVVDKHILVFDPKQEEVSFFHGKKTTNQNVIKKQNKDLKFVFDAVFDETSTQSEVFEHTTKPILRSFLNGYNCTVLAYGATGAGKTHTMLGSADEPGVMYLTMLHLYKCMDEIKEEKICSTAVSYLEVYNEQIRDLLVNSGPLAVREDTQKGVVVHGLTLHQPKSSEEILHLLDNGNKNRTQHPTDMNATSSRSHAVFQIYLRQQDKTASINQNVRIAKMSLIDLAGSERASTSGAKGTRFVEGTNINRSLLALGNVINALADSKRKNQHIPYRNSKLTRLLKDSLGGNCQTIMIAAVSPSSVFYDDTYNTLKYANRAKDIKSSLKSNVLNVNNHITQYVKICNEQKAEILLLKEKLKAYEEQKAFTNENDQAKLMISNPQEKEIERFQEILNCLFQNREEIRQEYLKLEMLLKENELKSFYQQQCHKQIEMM
T1 sequence (P02550 whole entry partner): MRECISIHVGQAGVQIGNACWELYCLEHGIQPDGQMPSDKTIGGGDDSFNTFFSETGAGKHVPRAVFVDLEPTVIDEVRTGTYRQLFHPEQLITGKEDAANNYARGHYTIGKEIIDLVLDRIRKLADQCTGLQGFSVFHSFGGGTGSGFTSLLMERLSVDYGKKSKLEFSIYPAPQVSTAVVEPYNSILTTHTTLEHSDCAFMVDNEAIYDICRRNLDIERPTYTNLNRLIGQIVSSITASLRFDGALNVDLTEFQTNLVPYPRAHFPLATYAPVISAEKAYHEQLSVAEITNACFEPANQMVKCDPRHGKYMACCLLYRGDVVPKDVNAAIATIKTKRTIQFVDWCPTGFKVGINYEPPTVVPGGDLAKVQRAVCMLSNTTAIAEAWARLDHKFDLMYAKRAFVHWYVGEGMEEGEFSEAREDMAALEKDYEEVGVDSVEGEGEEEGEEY
T1 sequence (P02554 whole entry partner): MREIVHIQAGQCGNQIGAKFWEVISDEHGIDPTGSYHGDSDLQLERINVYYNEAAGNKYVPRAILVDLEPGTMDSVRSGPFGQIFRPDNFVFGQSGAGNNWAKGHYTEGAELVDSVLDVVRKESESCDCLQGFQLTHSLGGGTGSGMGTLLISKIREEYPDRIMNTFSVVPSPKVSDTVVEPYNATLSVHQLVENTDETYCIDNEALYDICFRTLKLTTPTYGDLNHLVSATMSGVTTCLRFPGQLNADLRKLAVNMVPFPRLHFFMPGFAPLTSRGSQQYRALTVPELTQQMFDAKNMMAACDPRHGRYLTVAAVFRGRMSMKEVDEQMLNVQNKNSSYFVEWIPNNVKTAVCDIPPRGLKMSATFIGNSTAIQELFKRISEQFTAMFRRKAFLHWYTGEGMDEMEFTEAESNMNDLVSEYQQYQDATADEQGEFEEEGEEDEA
Put plainly: KIF18A Enzyme Assay: microtubule-stimulated ATPase activity (ADP-Glo). In kind it is biochemical. The following applies: 30 nM KIF18A, 30 μg/mL pig microtubules, ATP 75 μM (Km), ADP-Glo luminescence. The procedure, abridged: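 Measures microtubule-stimulated ATPase activity as ADP formed, detected by luminescence. Compounds were tested as 2-fold serial dilutions over 22 points. IC50 values came from four-parameter logistic fits.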
Background: ADP-Glo turns the ADP formed in a reaction into a luminescent signal.
In the case of `Cc1cc(NC(=O)c2ccc(NS(=O)(=O)CCO)cc2N2CCC3(CC2)CC3)nc(OCC(C)(C)O)c1` [Example 17-2, N-(6-(2-Hydroxy-2-methylpropoxy)-4-methylpyridin-2-yl)-4-((2-hydroxyethyl)sulfonamido)-2-(6-azaspiro[2.5]octan-6-yl)benzamide], the half-inhibitory concentration (IC50) was found to be 59 nM.

In the case of `Cc1cc(NC(=O)c2ccc(NS(=O)(=O)CCO)cc2N2CCC3(CC2)CC3)nc(OCCCC(F)(F)F)c1` [Example 17-3, 4-((2-Hydroxyethyl)sulfonamido)-N-(4-methyl-6-(4,4,4-trifluorobutoxy)pyridin-2-yl)-2-(6-azaspiro[2.5]octan-6-yl)benzamide], the IC50 was 184 nM.

Regarding `Cc1ccc(NC(=O)c2ccc(NS(=O)(=O)CCO)cc2N2CCC3(CC2)CC3)nc1N1CCOCC1` [Example 18, 4-((2-Hydroxyethyl)sulfonamido)-N-(5-methyl-6-morpholinopyridin-2-yl)-2-(6-azaspiro[2.5]octan-6-yl)benzamide], the IC50 stood at 12 nM.

For the molecule `C[C@@H]1CN(c2cc(C3CC3)cc(NC(=O)c3ccc(NS(=O)(=O)CCO)cc3N3CCC4(CC3)CC4)n2)CCO1` [Example 19, (R)—N-(4-cyclopropyl-6-(2-methylmorpholino)pyridin-2-yl)-4-((2-hydroxyethyl)sulfonamido)-2-(6-azaspiro[2.5]octan-6-yl)benzamide], the IC50 worked out at 87 nM.

Turning to `C[C@@H]1CN(c2cc(C(F)(F)F)cc(NC(=O)c3ccc(NS(=O)(=O)CCO)cc3N3CCC4(CC3)CC4)n2)CCO1` [Example 20, (R)-4-((2-Hydroxyethyl)sulfonamido)-N-(6-(2-methylmorpholino)-4-(trifluoromethyl)pyridin-2-yl)-2-(6-azaspiro[2.5]octan-6-yl)benzamide], the IC50 came to 93 nM.

Consider `N#Cc1ccc(NC(=O)c2ccc(NS(=O)(=O)CCO)cc2N2CCC3(CC2)CC3)nc1N1CCC(F)(F)CC1` [Example 21, N-(5-Cyano-6-(4,4-difluoropiperidin-1-yl)pyridin-2-yl)-4-((2-hydroxyethyl)sulfonamido)-2-(6-azaspiro[2.5]octan-6-yl)benzamide], for which the concentration for half-maximal inhibition (IC50) was determined as 25 nM.

For the molecule `Cc1ccc(NC(=O)c2ccc(NS(=O)(=O)CCO)cc2N2CCC3(CC2)CC3)nc1N1CCC(F)(F)CC1` [Example 22, N-(6-(4,4-Difluoropiperidin-1-yl)-5-methylpyridin-2-yl)-4-((2-hydroxyethyl)sulfonamido)-2-(6-azaspiro[2.5]octan-6-yl)benzamide], the IC50 amounted to 41 nM.

Consider `Cc1cc(NC(=O)c2ccc(NS(=O)(=O)CCO)cc2N2CCC3(CC2)CC3)nc(C2CCC(F)(F)CC2)c1` [Example 23, N-(6-(4,4-difluorocyclohexyl)-4-methylpyridin-2-yl)-4-((2-hydroxyethyl)sulfonamido)-2-(6-azaspiro[2.5]octan-6-yl)benzamide], for which the IC50 came to 41 nM.

Turning to `C[C@@H]1CN(c2nc(NC(=O)c3ccc(NS(=O)(=O)CCO)cc3N3CCC4(CC3)CC4)ccc2F)CCO1` [Example 24, (R)-N-(5-Fluoro-6-(2-methylmorpholino)pyridin-2-yl)-4-((2-hydroxyethyl)sulfonamido)-2-(6-azaspiro[2.5]octan-6-yl)benzamide], the IC50 was 33 nM.

Take `C[C@@H]1CN(c2cc(C#N)cc(NC(=O)c3ccc(NS(=O)(=O)CCO)cc3N3CCC4(CC3)CC4)n2)CCO1` [Example 25, (R)-N-(4-Cyano-6-(2-methylmorpholino)pyridin-2-yl)-4-((2-hydroxyethyl)sulfonamido)-2-(6-azaspiro[2.5]octan-6-yl)benzamide]: the IC50 is 41 nM.

On to `CC(C)(C)S(=N)(=O)c1cccc(NC(=O)c2ccc(NS(=O)(=O)CCO)cc2N2CCC3(CC2)CC3)n1` (stereo not drawn) [Example 26, 4-((2-Hydroxyethyl)sulfonamido)-N-(6-(2-methylpropan-2-ylsulfonimidoyl)pyridin-2-yl)-2-(6-azaspiro[2.5]octan-6-yl)benzamide], for which the IC50 is 363 nM.

For `O=C(Nc1cccc(OCCC(F)(F)F)n1)c1ccc(S(=O)(=O)C2CNC2)cc1N1CCC2(CC1)CC2` [Example 31, 4-(Azetidin-3-ylsulfonyl)-2-(6-azaspiro[2.5]octan-6-yl)-N-(6-(3,3,3-trifluoropropoxy)pyridin-2-yl)benzamide trifluoroacetate], the IC50 came out at 55 nM.

The values are drawn from patent US12459932B2, “KIF18A inhibitors” (AMGEN INC., priority 2018, dated 2025).
